Source: PubChem BioAssay AID1963872 (Molecular Pharmacology Branch, DTP, NCI, 2024)

Test system: KRAS patient-derived spheroids with HUVEC/MSC, viability
Experiment: Anticancer human tumor 519858-162-T-J1-PDC patient-derived colon adenocarcinoma cell line growth inhibition [KRAS2]
Settings: for IC50: curve of first compound; for viability, T/C: stronger effect = lower value
Procedure, shortened: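 Combination screen of spheroid viability in tumor-cell co-cultures with endothelial (HUVEC) and mesenchymal stem cell stroma. Each agent was tested in half-log dilutions, topping at clinical Cmax or at 10 microM without a known Cmax.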

[1] = second compound 0.1 µM, first compound 0.0316 µM
[2] = second compound 0.1 µM, first compound 0.1 µM
[3] = second compound 0.1 µM, first compound 0.316 µM
[4] = second compound 0.1 µM, first compound 1 µM
[5] = second compound 0.1 µM, first compound 3.16 µM
[6] = second compound 0.1 µM, first compound 10 µM
[7] = second compound 0.316 µM, first compound 0.0316 µM
[8] = second compound 0.316 µM, first compound 0.1 µM
[9] = second compound 0.316 µM, first compound 0.316 µM
[10] = second compound 0.316 µM, first compound 1 µM
[11] = second compound 0.316 µM, first compound 3.16 µM
[12] = second compound 0.316 µM, first compound 10 µM
[13] = second compound 1 µM, first compound 0.0316 µM
[14] = second compound 1 µM, first compound 0.1 µM
[15] = second compound 1 µM, first compound 0.316 µM
[16] = second compound 1 µM, first compound 1 µM
[17] = second compound 1 µM, first compound 3.16 µM
[18] = second compound 1 µM, first compound 10 µM
[19] = second compound 3.16 µM, first compound 0.0316 µM
[20] = second compound 3.16 µM, first compound 0.1 µM
[21] = second compound 3.16 µM, first compound 0.316 µM
[22] = second compound 3.16 µM, first compound 1 µM
[23] = second compound 3.16 µM, first compound 3.16 µM
[24] = second compound 3.16 µM, first compound 10 µM
[25] = second compound 10 µM, first compound 0.0316 µM
[26] = second compound 10 µM, first compound 0.1 µM
[27] = second compound 10 µM, first compound 0.316 µM
[28] = second compound 10 µM, first compound 1 µM
[29] = second compound 10 µM, first compound 3.16 µM
[30] = second compound 10 µM, first compound 10 µM
[31] = second compound 0.1 µM, first compound 0.000316 µM
[32] = second compound 0.1 µM, first compound 0.001 µM
[33] = second compound 0.1 µM, first compound 0.00316 µM
[34] = second compound 0.1 µM, first compound 0.01 µM
[35] = second compound 0.316 µM, first compound 0.000316 µM
[36] = second compound 0.316 µM, first compound 0.001 µM
[37] = second compound 0.316 µM, first compound 0.00316 µM
[38] = second compound 0.316 µM, first compound 0.01 µM
[39] = second compound 1 µM, first compound 0.000316 µM
[40] = second compound 1 µM, first compound 0.001 µM
[41] = second compound 1 µM, first compound 0.00316 µM
[42] = second compound 1 µM, first compound 0.01 µM
[43] = second compound 3.16 µM, first compound 0.000316 µM
[44] = second compound 3.16 µM, first compound 0.001 µM
[45] = second compound 3.16 µM, first compound 0.00316 µM
[46] = second compound 3.16 µM, first compound 0.01 µM
[47] = second compound 10 µM, first compound 0.000316 µM
[48] = second compound 10 µM, first compound 0.001 µM
[49] = second compound 10 µM, first compound 0.00316 µM
[50] = second compound 10 µM, first compound 0.01 µM
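Note: compound exposure lasted seven days before readout.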
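Throughout, for viability, T/C: 100% = DMSO vehicle control viability.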

| Compound | IC50 (second compound 0.1 µM) | IC50 (second compound 0.316 µM) | IC50 (second compound 1 µM) | IC50 (second compound 3.16 µM) | IC50 (second compound 10 µM) | viability, T/C [1] | viability, T/C [2] | viability, T/C [3] | viability, T/C [4] | viability, T/C [7] | viability, T/C [8] | viability, T/C [9] | viability, T/C [10] | viability, T/C [13] | viability, T/C [14] | viability, T/C [15] | viability, T/C [19] | viability, T/C [20] | viability, T/C [25] | viability, T/C [26] | further results |
| --- | --- | --- | --- | --- | --- | --- | --- | --- | --- | --- | --- | --- | --- | --- | --- | --- | --- | --- | --- | --- | --- |
| CC(C)NCC(C(=O)N1CCN(c2ncnc3c2C(C)CC3O)CC1)c1ccc(Cl)cc1 (stereo not given) + COc1cc2nc(C)nc(NC(C)c3cc(N)cc(C(F)(F)F)c3)c2cc1OC1CCOC1 | 10000 nM | > 10000 nM | > 10000 nM | > 10000 nM | > 10000 nM | 72.5% | 89.6% | 86.2% | 99.4% | 67.6% | 105% | 89.6% | 74.3% | 77.4% | 113% | 78.2% | 78% | 69.2% | 58.7% | 62% | viability, T/C [5]: 41.4%; viability, T/C [6]: 71%; viability, T/C [11]: 65.2%; viability, T/C [12]: 78.4%; viability, T/C [16]: 66%; viability, T/C [17]: 49.4%; viability, T/C [18]: 60.3%; viability, T/C [21]: 56.6%; viability, T/C [22]: 56.1%; viability, T/C [23]: 61.5%; viability, T/C [24]: 64.1%; viability, T/C [27]: 61.2%; viability, T/C [28]: 52.3%; viability, T/C [29]: 58.8%; viability, T/C [30]: 72% |
| CC(C)n1nc(-c2ccc3oc(N)nc3c2)c2c(N)ncnc21 + COc1cc2nc(C)nc(NC(C)c3cc(N)cc(C(F)(F)F)c3)c2cc1OC1CCOC1 | > 100 nM | > 100 nM | > 100 nM | > 100 nM | 4.58 nM | 70.9% | 74.9% |  |  | 73.5% | 72.2% |  |  | 65.6% | 77.4% |  | 60.2% | 84.7% | 30.2% | 45.6% | viability, T/C [31]: 107%; viability, T/C [32]: 93.9%; viability, T/C [33]: 79.3%; viability, T/C [34]: 73%; viability, T/C [35]: 89.1%; viability, T/C [36]: 99.8%; viability, T/C [37]: 90.2%; viability, T/C [38]: 84.9%; viability, T/C [39]: 89.9%; viability, T/C [40]: 84.8%; viability, T/C [41]: 75.5%; viability, T/C [42]: 67.8%; viability, T/C [43]: 117%; viability, T/C [44]: 84.2%; viability, T/C [45]: 93.4%; viability, T/C [46]: 72.5%; viability, T/C [47]: 78.1%; viability, T/C [48]: 71.7%; viability, T/C [49]: 54.3%; viability, T/C [50]: 42.6% |
| CC1(C)CCC(CN2CCN(c3ccc(C(=O)NS(=O)(=O)c4ccc(NCC5CCOCC5)c([N+](=O)[O-])c4)c(Oc4cnc5[nH]ccc5c4)c3)CC2)=C(c2ccc(Cl)cc2)C1 + COc1cc2nc(C)nc(NC(C)c3cc(N)cc(C(F)(F)F)c3)c2cc1OC1CCOC1 | > 10000 nM | > 10000 nM | 5240 nM | 6200 nM | 2660 nM | 105% | 85.7% | 74.5% | 82.5% | 116% | 92.4% | 92.3% | 78.9% | 73.7% | 79.9% | 98.9% | 63.5% | 63.3% | 82.1% | 60.9% | viability, T/C [5]: 73.6%; viability, T/C [6]: 101%; viability, T/C [11]: 76.5%; viability, T/C [12]: 52.5%; viability, T/C [16]: 80.5%; viability, T/C [17]: 66.8%; viability, T/C [18]: 28.6%; viability, T/C [21]: 82%; viability, T/C [22]: 69.5%; viability, T/C [23]: 73%; viability, T/C [24]: 35.8%; viability, T/C [27]: 92.9%; viability, T/C [28]: 78.6%; viability, T/C [29]: 45%; viability, T/C [30]: 37.8% |
| CCN1CCN(Cc2ccc(Nc3ncc(F)c(-c4cc(F)c5nc(C)n(C(C)C)c5c4)n3)nc2)CC1 + COc1cc2nc(C)nc(NC(C)c3cc(N)cc(C(F)(F)F)c3)c2cc1OC1CCOC1 | 526 nM | 391 nM | 391 nM | 471 nM | 44.6 nM | 77.2% | 74.5% | 62.1% | 34.7% | 72.3% | 98.2% | 54.8% | 29% | 77.6% | 61.8% | 55.1% | 48.9% | 67.2% | 64.8% | 38.3% | viability, T/C [33]: 76.9%; viability, T/C [34]: 78.5%; viability, T/C [37]: 83.8%; viability, T/C [38]: 56%; viability, T/C [41]: 51.5%; viability, T/C [42]: 80.2%; viability, T/C [16]: 30.1%; viability, T/C [45]: 69.3%; viability, T/C [46]: 51%; viability, T/C [21]: 73.8%; viability, T/C [22]: 27.4%; viability, T/C [49]: 84%; viability, T/C [50]: 58%; viability, T/C [27]: 20.2%; viability, T/C [28]: 19.4% |
| CCNC(=O)CC1N=C(c2ccc(Cl)cc2)c2cc(OC)ccc2-n2c(C)nnc21 (stereo not given) + COc1cc2nc(C)nc(NC(C)c3cc(N)cc(C(F)(F)F)c3)c2cc1OC1CCOC1 | 1410 nM | 656 nM | 531 nM | 367 nM | 106 nM | 82.4% | 90.9% | 86.2% | 67.9% | 78.8% | 125% | 78.3% | 33.1% | 71.1% | 58.3% | 66.2% | 70% | 90.5% | 58% | 48% | viability, T/C [5]: 7.95%; viability, T/C [6]: 5.72%; viability, T/C [11]: 8.12%; viability, T/C [12]: 9.79%; viability, T/C [16]: 31.5%; viability, T/C [17]: 5.67%; viability, T/C [18]: 7.44%; viability, T/C [21]: 55.4%; viability, T/C [22]: 13.8%; viability, T/C [23]: 6.83%; viability, T/C [24]: 9.55%; viability, T/C [27]: 33%; viability, T/C [28]: 7.95%; viability, T/C [29]: 6.57%; viability, T/C [30]: 5.25% |
| Cn1ncnc1[C@H]1c2n[nH]c(=O)c3cc(F)cc(c23)N[C@@H]1c1ccc(F)cc1 + COc1cc2nc(C)nc(NC(C)c3cc(N)cc(C(F)(F)F)c3)c2cc1OC1CCOC1 | > 100 nM | > 100 nM | > 100 nM | > 100 nM | > 100 nM | 76.9% | 80.1% |  |  | 77% | 74.5% |  |  | 68% | 58% |  | 47.8% | 70.6% | 57.8% | 48.4% | viability, T/C [31]: 71.8%; viability, T/C [32]: 95.3%; viability, T/C [33]: 73.5%; viability, T/C [34]: 71.8%; viability, T/C [35]: 68.2%; viability, T/C [36]: 68.7%; viability, T/C [37]: 59.2%; viability, T/C [38]: 74.9%; viability, T/C [39]: 74.7%; viability, T/C [40]: 67.3%; viability, T/C [41]: 70.9%; viability, T/C [42]: 97.4%; viability, T/C [43]: 45.8%; viability, T/C [44]: 60.3%; viability, T/C [45]: 45.7%; viability, T/C [46]: 69.8%; viability, T/C [47]: 49.7%; viability, T/C [48]: 55.6%; viability, T/C [49]: 57.8%; viability, T/C [50]: 50.7% |
